One test relates to HCT-116. Briefly: Cell viability assay (MTT, solid tumour cell lines), 72 h growth inhibition. The settings on record: Homo sapiens, HCT-116 cells. It is filed as cell-based. The source says: (§1) Compounds from Example 1 may be subjected to a standard MTT (3-(4,5-dimethylthiazol-2-yl)-2,5-diphenyltetrazolium bromide) and resazurin assays on solid tumour cell lines and leukemia cell lines, respectively, as previously reported (Wang S et al., J Med Chem 47:1662-1675, 2004 and Diab S e al. CheMedChem 9:962-972, 2014). Compound concentrations required to inhibit 50% of cell growth (GI50) can be calculated using non-linear regression analysis.

The test system of the next test is MV-4-11. Briefly: Cell viability assay (resazurin, leukemia cell lines), 72 h growth inhibition. The settings on record: Homo sapiens, MV4-11, MV-4-11 cells. It counts as cell-based.
Text: as §1

A further test has as its target T1, CDK8/CycC (Homo sapiens, UniProt P49336).
T1 construct: purchased ProQinase GmbH, Freiburg, Germany
In words: Radiometric protein kinase assay (33PanQinase Activity Assay, ProQinase). The following applies: 1.0 μM ATP, 1.0 μg/50 μL substrate RBER-IRStide, duplicate measurements, read-out: CDK8 Kinase inhibition IC50. It is filed as biochemical. The protocol: The kinase activity of CDK8/CycC was measured using a radiometric protein kinase assay (33PanQinase® Activity Assay) by ProQinase GmbH, Freiburg, Germany, with the protocols shown at www.proqinase.com/sites/default/files/public/uploads/WildtypeProfiler/radiometric_assay_v05_2012_manual.pdf. IC50 determination (8.3 nM with 1.0 μM ATP and 1.0 μg/50 μL of substrate RBER-IRStide) was performed as duplicate measurements and calculated using Quattro Workflow V3.1.1 (Quattro Research GmbH, Germany). Apparent inhibition constants (Ki) values were calculated from Km (ATP) and IC50 values for the respective kinases.

T1 sequence (P49336 whole entry): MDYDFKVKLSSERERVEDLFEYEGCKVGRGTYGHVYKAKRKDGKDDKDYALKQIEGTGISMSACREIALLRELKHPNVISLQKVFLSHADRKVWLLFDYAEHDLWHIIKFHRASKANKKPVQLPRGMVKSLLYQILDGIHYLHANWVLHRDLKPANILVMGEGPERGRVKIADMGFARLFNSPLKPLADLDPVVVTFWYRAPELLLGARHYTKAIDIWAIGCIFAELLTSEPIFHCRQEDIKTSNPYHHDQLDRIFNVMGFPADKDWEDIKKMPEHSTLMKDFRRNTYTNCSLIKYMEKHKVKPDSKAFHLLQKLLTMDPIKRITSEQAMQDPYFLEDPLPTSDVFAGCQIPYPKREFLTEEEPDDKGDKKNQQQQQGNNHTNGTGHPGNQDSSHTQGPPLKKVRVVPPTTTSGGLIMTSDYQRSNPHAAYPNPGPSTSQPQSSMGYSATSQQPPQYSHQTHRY
T1 sequence (P24863 whole entry partner): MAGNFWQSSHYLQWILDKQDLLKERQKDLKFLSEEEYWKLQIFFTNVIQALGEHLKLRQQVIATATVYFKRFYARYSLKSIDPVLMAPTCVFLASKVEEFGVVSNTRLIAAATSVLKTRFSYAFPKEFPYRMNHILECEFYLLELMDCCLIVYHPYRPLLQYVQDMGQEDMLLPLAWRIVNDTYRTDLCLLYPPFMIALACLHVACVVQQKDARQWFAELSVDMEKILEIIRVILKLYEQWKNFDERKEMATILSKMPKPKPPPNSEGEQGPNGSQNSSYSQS

Usually GI50 stands for the concentration giving 50% growth inhibition. By IC50 is commonly meant the concentration at which inhibition is half-maximal. As for `CNc1nccc(-c2sc(NC(=O)Nc3ccc(Cl)c(C(F)(F)F)c3)nc2C)n1` [Compound 24, 1-(4-Chloro-3-(trifluoromethyl)-phenyl)-3-(4-methyl-5-(2-(methylamino)-pyrimidin-4-yl)thiazol-2-yl)urea], the results for the GI50 in the test with HCT-116 and in the test on MV-4-11 were 7250 ± 310 nM and 3480 ± 9530 nM, respectively. For the same molecule, at CDK8/CycC, the concentration for half-maximal inhibition (IC50) was determined as 12 nM.
For `CNc1nccc(-c2sc(NC(=O)Nc3cccc(C(F)(F)F)c3)nc2C)n1` [Compound 10, 1-(4-Methyl-5-(2-(methylamino)-pyrimidin-4-yl)thiazol-2-yl)-3-(3-(trifluoromethyl)phenyl)urea], the 50% growth inhibitory concentration (GI50) in the test on HCT-116 was 510 ± 30 nM; with MV-4-11, 870 ± 360 nM. At CDK8/CycC, the IC50 worked out at 10 nM.
Consider `CCOc1cccc(NC(=O)Nc2nc(C)c(-c3ccnc(NC)n3)s2)c1` [Compound 19, 1-(3-Ethoxyphenyl)-3-(4-methyl-5-(2-(methylamino)pyrimidin-4-yl)thiazol-2-yl)urea], for which growth in the test with HCT-116 was halved (GI50) at 854 ± 10 nM. Moreover, the IC50 at CDK8/CycC stood at 6 nM.
In the test on MV-4-11, `CNc1ncc(C#N)c(-c2sc(NC(=O)Nc3ccc(CN4CCN(C(C)C)CC4)c(C(F)(F)F)c3)nc2C)n1` [Compound 73, 1-(5-(5-Cyano-2-(methylamino)pyrimidin-4-yl)-4-methylthiazol-2-yl)-3-(4-((4-isopropylpiperazin-1-yl)methyl)-3-(trifluoromethyl)phenyl)urea] came in with a GI50 of 482 ± 30 nM. Moreover, the IC50 at CDK8/CycC came out at 59 nM.
Consider `CNc1ncc(Cl)c(-c2sc(NC(=O)Nc3ccc(CN4CCN(C(C)C)CC4)c(C(F)(F)F)c3)nc2C)n1` [Compound 67, 1-(5-(5-Chloro-2-(methylamino)pyrimidin-4-yl)-4-methylthiazol-2-yl)-3-(4-((4-isopropylpiperazin-1-yl)methyl)-3-(trifluoromethyl)phenyl)urea], for which the GI50 with MV-4-11 stood at 174 ± 10 nM. Further, the IC50 on CDK8/CycC stood at 30 nM.
In the same order, the values of `CSc1nccc(-c2sc(NC(=O)Nc3ccc(CN4CCN(C(C)=O)CC4)c(C(F)(F)F)c3)nc2C)n1` [Compound 81, 1-(4-((4-Acetylpiperazin-1-yl)methyl)-3-(trifluoromethyl)phenyl)-3-(4-methyl-5-(2-(methylthio)pyrimidin-4-yl)thiazol-2-yl)urea] are 715 ± 10 nM and 177 nM.
In the same order, the values of `CNc1ncc(C#N)c(-c2sc(NC(=O)Nc3ccc(CN4CCOCC4)c(C(F)(F)F)c3)nc2C)n1` [Compound 75, 1-(5-(5-Cyano-2-(methylamino)pyrimidin-4-yl)-4-methylthiazol-2-yl)-3-(4-(morpholinomethyl)-3-(trifluoromethyl)phenyl)urea] are 3420 ± 230 nM and 82 nM.
In the case of `CNc1ncc(Cl)c(-c2sc(NC(=O)Nc3ccc(CN4CCN(C(C)=O)CC4)c(C(F)(F)F)c3)nc2C)n1` [Compound 68, 1-(4-((4-Acetylpiperazin-1-yl)methyl)-3-(trifluoromethyl)phenyl)-3-(5-(5-chloro-2-(methylamino)pyrimidin-4-yl)-4-methylthiazol-2-yl)urea], growth in the test on MV-4-11 was halved (GI50) at 4250 ± 420 nM. In addition, the half-inhibitory concentration (IC50) at CDK8/CycC stood at 80 nM.
Consider `CNc1nccc(-c2sc(NC(=O)Nc3ccc(CN4CCC(C)CC4)c(C(F)(F)F)c3)nc2C)n1` [Compound 40, 1-(4-Methyl-5-(2-(methylamino)-pyrimidin-4-yl)thiazol-2-yl)-3-(4-((4-methylpiperidin-1-yl)methyl)-3-(trifluoromethyl)phenyl)urea], for which it took 2510 ± 390 nM to inhibit growth with MV-4-11 by half (GI50). Moreover, the IC50 on CDK8/CycC amounted to 34 nM.
In the same order, the values of `CSc1nccc(-c2sc(NC(=O)Nc3ccc(CN4CCN(C)CC4)c(C(F)(F)F)c3)nc2C)n1` [Compound 80, 1-(4-Methyl-5-(2-(methylthio)pyrimidin-4-yl)thiazol-2-yl)-3-(4-((4-methyl-piperazin-1-yl)methyl)-3-(trifluoromethyl)phenyl)urea] are 1 nM and 79 nM.
In the same order, the values of `CCNc1nccc(-c2sc(NC(=O)Nc3ccc(CN4CCN(C)CC4)c(C(F)(F)F)c3)nc2C)n1` [Compound 52, 1-(5-(2-(Ethylamino)pyrimidin-4-yl)-4-methylthiazol-2-yl)-3-(4-((4-methylpiperazin-1-yl)methyl)-3-(trifluoromethyl)phenyl)urea] are < 1 nM and 15 nM.
In the test with MV-4-11, `Cc1nc(NC(=O)Nc2ccc(CN3CCOCC3)c(C(F)(F)F)c2)sc1-c1ccnc(C(C)C)n1` [Compound 79, 1-(5-(2-Isopropylpyrimidin-4-yl)-4-methylthiazol-2-yl)-3-(4-(morpholinomethyl)-3-(trifluoromethyl)phenyl)urea] yielded a 50% growth inhibitory concentration (GI50) of 998 ± 60 nM. Besides, the IC50 on CDK8/CycC was 206 nM.
In the same order, the values of `CNc1ncc(Cl)c(-c2sc(NC(=O)Nc3ccc(CN4CCN(C)CC4)c(C(F)(F)F)c3)nc2C)n1` [Compound 65, 1-(5-(5-Chloro-2-(methylamino)pyrimidin-4-yl)-4-methylthiazol-2-yl)-3-(4-((4-methylpiperazin-1-yl)methyl)-3-(trifluoromethyl)phenyl)urea] are 55 ± 10 nM and 15 nM.
Regarding `CNc1ncc(F)c(-c2sc(NC(=O)Nc3ccc(CN4CCOCC4)c(C(F)(F)F)c3)nc2C)n1` [Compound 70, 1-(5-(5-Fluoro-2-(methylamino)pyrimidin-4-yl)-4-methylthiazol-2-yl)-3-(4-(morpholinomethyl)-3-(trifluoromethyl)phenyl)urea], the GI50 in the test on MV-4-11 is 273 ± 10 nM. In addition, the IC50 at CDK8/CycC was 25 nM.
In the same order, the values of `CNc1nccc(-c2cnc(NC(=O)Nc3ccc(CN4CCN(C(C)=O)CC4)c(C(F)(F)F)c3)s2)n1` [Compound 61, 1-(4-((4-Acetylpiperazin-1-yl)methyl)-3-(trifluoromethyl)phenyl)-3-(5-(2-(methylamino)pyrimidin-4-yl)thiazol-2-yl)urea] are 176 ± 40 nM and 20 nM.
In the same order, the values of `CSc1nccc(-c2sc(NC(=O)Nc3ccc(CN4CCOCC4)c(C(F)(F)F)c3)nc2C)n1` [Compound 83, 1-(4-Methyl-5-(2-(methylthio)pyrimidin-4-yl)thiazol-2-yl)-3-(4-(morpholinomethyl)-3-(trifluoromethyl)phenyl)urea] are 1560 ± 100 nM and 121 nM.
In the same order, the values of `Cc1nc(NC(=O)Nc2ccc(CN3CCN(S(C)(=O)=O)CC3)c(C(F)(F)F)c2)sc1-c1ccnc(C(C)C)n1` [Compound 78, 1-(5-(2-Isopropylpyrimidin-4-yl)-4-methylthiazol-2-yl)-3-(4-((4-(methylsulfonyl)-piperazin-1-yl)methyl)-3-(trifluoromethyl)phenyl)urea] are 1590 ± 90 nM and 293 nM.
For the molecule `CNc1nccc(-c2sc(NC(=O)Nc3cccc(OC)c3)nc2C)n1` [Compound 16, 1-(3-Methoxyphenyl)-3-(4-methyl-5-(2-(methylamino)pyrimidin-4-yl)thiazol-2-yl)urea], in the test with MV-4-11, halving of growth (GI50) required 2270 ± 680 nM. The IC50 on CDK8/CycC is 9 nM.
`CSc1nccc(-c2sc(NC(=O)Nc3ccc(CN4CCN(S(C)(=O)=O)CC4)c(C(F)(F)F)c3)nc2C)n1` [Compound 82, 1-(4-Methyl-5-(2-(methylthio)pyrimidin-4-yl)thiazol-2-yl)-3-(4-((4-(methyl-sulfonyl)piperazin-1-yl)methyl)-3-(trifluoromethyl)phenyl)urea] returned a GI50 in the test with MV-4-11 of 721 ± 30 nM. Moreover, the IC50 at CDK8/CycC was found to be 220 nM.
In the same order, the values of `CNc1nccc(-c2sc(NC(=O)Nc3ccc(CN4CCC(N)CC4)c(C(F)(F)F)c3)nc2C)n1` [Compound 39, 1-(4-((4-Aminopiperidin-1-yl)methyl)-3-(trifluoromethyl)-phenyl)-3-(4-methyl-5-(2-(methylamino)pyrimidin-4-yl)thiazol-2-yl)urea] are 96 nM and 8 nM.
In the same order, the values of `CNc1nccc(-c2cnc(NC(=O)Nc3ccc(CN4CCN(C)CC4)c(C(F)(F)F)c3)s2)n1` [Compound 58, 1-(5-(2-(Methylamino)pyrimidin-4-yl)thiazol-2-yl)-3-(4-((4-methylpiperazin-1-yl)methyl)-3-(trifluoromethyl)phenyl)urea] are 1 nM and 7 nM.
Take `CNc1nccc(-c2sc(NC(=O)Nc3ccc(CN4CCN(C(C)C)CC4)c(C(F)(F)F)c3)nc2C)n1` [Compound 34, 1-(4-((4-Isopropylpiperazin-1-yl)methyl)-3-(trifluoromethyl)-phenyl)-3-(4-methyl-5-(2-(methylamino)pyrimidin-4-yl)thiazol-2-yl)urea]: in the test with MV-4-11, the GI50 is < 1 nM. For the same molecule, on CDK8/CycC, the half-maximal inhibitory concentration (IC50) was found to be 11 nM.
Consider `Cc1nc(NC(=O)Nc2ccc(CN3CCOCC3)c(C(F)(F)F)c2)sc1-c1ccnc(N)n1` [Compound 64, 1-(5-(2-Aminopyrimidin-4-yl)-4-methylthiazol-2-yl)-3-(4-(morpholinomethyl)-3-(trifluoromethyl)phenyl)urea], for which halving of growth with MV-4-11 (GI50) required 275 ± 50 nM. For the same molecule, the IC50 on CDK8/CycC came out at 15 nM.
In turn, `Cc1nc(NC(=O)Nc2ccc(CN3CCN(C(C)C)CC3)c(C(F)(F)F)c2)sc1-c1ccnc(N)n1` [Compound 63, 1-(5-(2-Aminopyrimidin-4-yl)-4-methylthiazol-2-yl)-3-(4-((4-isopropylpiperazin-1-yl)methyl)-3-(trifluoromethyl)phenyl)urea] came in with a GI50 in the test with MV-4-11 of 3 nM. Further, the IC50 on CDK8/CycC worked out at 13 nM.

The record behind these values is patent US11325900B2, “5-(pyrimidin-4-yl)thiazol-2-yl urea derivatives as therapeutic agents” (AUCENTRA HOLDINGS PTY LTD, priority 2018, dated 2022).
